SMILES strings stand for the structures.

The subject of the assay is tyrosinase de champignons. Kind of assay: Inhibition of the dopa-oxidase activity of mushroom tyrosinase (dopachrome formation followed by visible spectrometry at 475 nm). Type of assay: biochemical. The source says:
Un test a mis en évidence l'activité de l'octopirox comme inhibiteur de la tyrosinase par évaluation de son effet inhibiteur sur l'activité dopa-oxydase de la tyrosinase des mélanocytes de champignons.
Selon ce test, on suit par spectrométrie visible à 475 nm la quantité de dopachrome formée au cours de la chaîne de réaction de transformation de la tyrosine en mélanine, en fonction du temps. Ces réactions sont catalysées in vitro par la tyrosinase de champignons, en présence d'un co-substrat réducteur (la L-dopa en petite quantité) pour initier la réaction d'hydroxylation de la L-tyrosine en L-dopa, laquelle est ensuite oxydée catalytiquement en dopaquinone puis en dopachrome, produit intermédiaire avant les réactions d'oxydation non enzymatiques aboutissant à la formation de mélanine.
Le milieu réactionnel utilisé pour réaliser ce test comprend 1 ml d'une solution de L-tyrosine à 2.10^-3 M dans du tampon phosphate 0,1 M de pH = 6,5, 0,1 ml de solution de L-dopa à 10^-4 M dans le tampon phosphate, 0,05 ml de solution de tyrosinase de champignons à 2.400 unités/ml dans le tampon phosphate et 1,85 ml de solution de l'inhibiteur à 10^-2 M dans le tampon phosphate. Pour le témoin, la quantité d'inhibiteur a été remplacée par de l'éthanol. […]
La concentration de 10^-2 M d'octopirox dans le milieu réactionnel correspond à une quantité équimolaire par rapport à la tyrosine utilisée. […]

For `Cc1cc(CC(C)CC(C)(C)C)n(O)c(=O)c1` (centres unmarked) [octopirox, 1-hydroxy-4-méthyl-6-(2,4,4-triméthylpentyl)-2(1H)-pyridinone], the “temps pour obtenir le même pourcentage de dopachrome formée, par exemple 100 %” value (inhibitor solution 10^-2 M in phosphate buffer 0,1 M pH 6,5, L-tyrosine 2.10^-3 M, L-dopa 10^-4 M, control (ethanol) 9,5 minutes, figure 1 curves (b)) was 14 min. Besides, the “quantité de dopachrome formée au cours du temps” value (inhibitor solution 10^-2 M, compared with control curve (a), figure 1, result in words) was “net ralentissement de la quantité de dopachrome formée au cours du temps”.

The record behind these values is patent publication EP0801947B1, “Use of octopirox as skin depigmentation agent” (L'OREAL, priority 1996, dated 1997).
